“And” between values parts separate entries of the source, which are not always exact repeats. Equal entries are not always repeated.
How the values were obtained:
Assay type in all cases: in vivo
C57BL/6 mice = assay: Cisplatin-induced renal injury in mice: serum CRE and BUN; conditions: extracts at 1000 mg/kg; compared to cisplatin-stimulated group, p<0.001
Experimental: Determination of biochemical parameters Serum creatinine and serum urea are assessed using colorimetric kits according to manufacturer's instructions. Kits of the former markers are purchased from (HUMAN Diagnostics Worldwide, Magdeburg, Germany) with a chemical analyzer (Roche Diagnostics, Cobas Mira Plus, Rotkreuz, Switzerland).
Seven-to-eight-week-old male C57BL/6 mice are obtained from the BioLASCO Taiwan Co., Ltd. (Taipei, Taiwan). The animals are housed in Plexiglas cages at a constant temperature of 22±1° C. and a relative humidity of 55±5% on a 12 h dark-light cycle for at least 2 weeks before the experiment. Animals are provided food and water ad libitum. All experimental procedures are performed according to the guidelines of the Institutional Animal Ethics Committee, and the protocol is approved by the Committee for the Purpose of Control and Supervision of Experiments on Animals.
Renal fibrosis is induced via multiple injections of low-dose cisplatin. Intraperitoneal injections of cisplatin (5 mg/kg/injection; P4394, Sigma-Aldrich, St Louis, Mo.) are performed at 0, 1, and 3 weeks, for a total of 3 injections. Mice are sacrificed at 6 weeks after the first dose of cisplatin (n=6). To analyze the effects of samples, mice are given daily intraperitoneal injections for 7 days, starting from 4 weeks after first dose of cisplatin, and sacrificed at […] (n=6).

MPO = assay: Bleomycin-induced pulmonary fibrosis in mice: lung myeloperoxidase (MPO) assay; conditions: compared with BLM group, p<0.001
Experimental: (§1) Mice were divided into fifth groups with 5 animals per group according to body weight: control group, BLM group, BLM+DEX group (7.5 mg/kg), BLM+ACH dosage group (50 mg/kg), and BLM+ACM dosage group (25 mg/kg), BLM+ACH dosage group (50 mg/kg), and BLM+ACM dosage group (25 mg/kg) BLM+AH dosage group (50 mg/kg), and BLM+AM dosage group (25 mg/kg) BLM+BH dosage group (50 mg/kg), and BLM+BM dosage group (25 mg/kg) BLM+CH dosage group (50 mg/kg), and BLM+CM dosage group (25 mg/kg) BLM+DH dosage group (50 mg/kg), and BLM+DM dosage group (25 mg/kg) BLM+EH dosage group (50 mg/kg), and BLM+EM dosage group (25 mg/kg) BLM. Pulmonary fibrosis (PF) was established in mice via a single intratracheal administration of BLM at 7.5 mg/kg mg/kg body weight. Different doses of samples were intragastrically administered daily for 21 days after BLM injury, and DEX was used as the positive control. Control and model groups received an equal volume of vehicle (0.9% NaCl) using the same schedule and route of administration.
The pulmonary MPO activity was a reliable index for estimating the infiltration of inflammatory cells in lungs. The lung tissues were homogenized and the MPO levels were detected with the kits according to manufacturer's instruction.

[1] = system: New Zealand White rabbits; assay: Hypercholesterolemic rabbit model: liver histology scores (steatosis, inflammation, fibrosis); parameters: key to Score of Fibrosis: 0: none; 1: mild perisinusoidal or periportal; 2: perisinusoidal and portal/periportal; 3: bridging fibrosis; 4: cirrhosis; key to Score of Steatosis Location: 0: zone 3, centrilobular; 1: zone 2, mid-zonal; 3: panacinar; conditions: individual liver slides; 0.5% cholesterol chow plus 10 mg/kg Lovastatin, 1% ARH003, 1% ARH004 or 10 mg/kg AR101-DS2; 12-week study
ICR mice [2] = assay: Bleomycin-induced pulmonary fibrosis in mice: body weight, lung weight, lung index; conditions: for Pulmonary index: (lung weight/body weight)×100
Experimental: Specific pathogen-free ICR mice (males) (body weights 18-22 g) were purchased from the BioLASCO Taiwan Co., Ltd. (Taipei, Taiwan). The animals were housed in Plexiglas cages at a constant temperature of 22±1° C. and a relative humidity of 55±5% on a 12 h dark-light cycle for at least 2 weeks before the experiment. Animals were provided food and water ad libitum. All experimental procedures were performed according to the guidelines of the Institutional Animal Ethics Committee, and the protocol was approved by the Committee for the Purpose of Control and Supervision of Experiments on Animals.
as §1
Mouse body weights were recorded daily. Mice were sacrificed on the 21th day using excess chloral hydrate hydrochloride anesthesia. Blood was obtained for ELISA analyses, and whole lungs were removed and weighed. The right lungs were fixed in 10% formalin, dehydrated, and embedded in paraffin. The left lungs were used to determine hydroxyproline. The pulmonary coefficient was calculated using the following equation: lung weight/body weight×100%
1. Group I: control; 2. Group II: mice received single intraperitoneal injection of BLM (7.5 mg/kg BW) 3. Group III: single dose (ACH, 0.5 g/kg) 4. Group IV: Single dose (ACM, 1.0 g/kg) 5. […] Group VII: purified AR101-DS2 (50 mg/kg) 8. Group VIII: purified AR101-DS2 (25 mg/kg) 7. Group VII: purified AR101-DS4 (50 mg/kg) 8. Group VIII: purified AR101-DS4 (25 mg/kg) 7. […] Group VII: purified ARH013-RA1 (50 mg/kg) 8. Group VIII: purified ARH013-RA1 (25 mg/kg)

ICR mice [3] = assay: Bleomycin-induced pulmonary fibrosis in mice: lung hydroxyproline content; conditions: extract 1.0 g/kg; AH, BH, DH 50 mg/kg; p<0.001
Experimental: as §1
The contents of hydroxyproline were analyzed in lung tissue following the instruction of hydroxyproline assay kit (Biosource International Inc., Sunnyvale, Calif., USA). The pulmonary tissues of mice were ground and homogenized with 1 ml of 6 mol/L […] solution, hydrolyzed at 95° C. for 5 hours, and the pH value was adjusted to 6.0-6.8. According to the instructions, the corresponding reagents were added to the reaction system and mixed thoroughly and then incubated for 15 minutes at 60° C. After cooling, the supernatants were collected after centrifuging at 3500 rpm for 10 minutes. The absorbance value of the supernatant from the samples was measured at 550 nm by a spectrophotometer and calculated for the contents of hydroxyproline on each group.

[4] = system: TNF-α, IL-1β, IL-6 and TGF-β; assay: Bleomycin-induced pulmonary fibrosis in mice: pro-inflammatory cytokines by ELISA; conditions: extract 1.0 g/kg; BH, DH 50 mg/kg; after BLM challenge; p<0.001
Experimental: as §1, with “administration. […]” for “administration.”
The serum concentration of the pro-inflammatory cytokines (i.e. tumor necrosis factor-α (TNF-α), interleukin-6 (IL-6), and IL-1β) in serum were assessed with relevant enzyme-linked immunosorbent assay (ELISA) kits (Biosource International Inc., Sunnyvale, Calif., USA), based on the manufacturer's instructions.

[5] = 25 mg/kg intragastric daily for 21 days after BLM
[6] = 50 mg/kg intragastric daily for 21 days after BLM

Compound	renal protection: normalization of serum CRE and BUN (C57BL/6 mice)	lung MPO activity (MPO)	Score of Fibrosis [1]	Score of Inflammation [1]	Score of Steatosis Grade [1]	Score of Steatosis Location [1]	Final body mass (ICR mice [2]; [5]) [g]	Pulmonary mass (ICR mice [2]; [5]) [g]	Pulmonary index (ICR mice [2]; [5])	Final body mass (ICR mice [2]; [6]) [g]	Pulmonary mass (ICR mice [2]; [6]) [g]	Pulmonary index (ICR mice [2]; [6])	lung index, result in words (ICR mice [2]; high-dose groups (ACH 1.0 g/kg; BH, DH 50 mg/kg), vs bleomycin-administered animals)	hydroxyproline (HP) content in lung tissue (ICR mice [3])	TNF-α, IL-1β, IL-6 and TGF-β production [4]
C=C(CC[C@@H](C(=O)O)[C@H]1CC[C@@]2(C)C3=CC[C@H]4C(C)(C)[C@@H](O)CC[C@]4(C)C3=CC[C@]12C)C(C)C [AR101-DS4, Dehydroeburicoic Acid]	significant renal protection effect														
Dehydrosulphurenic acid/Sulphurenic acid [AR101-DS2]		evidently suppressed the MPO activities	0	1 (mild, 2 foci per 200 field) (2×) and 2 (moderate, 2-4 foci per 200 field)	3 (>66%) (2×) and 1 (5-33%)	2 and 1 and 0	37.91 ± 0.30	0.48 ± 0.01	1.26 ± 0.03	39.7 ± 0.21	0.39 ± 0.01	1.01 ± 0.02	significant decrease in the lung index	reduced lung HP	improved TNF-α, IL-1β, IL-6 and TGF-β production
C=C(CC[C@@H](C)[C@H]1CC[C@H]2C3=C(C(=O)C[C@]12C)[C@@]1(C)CC[C@@H](O)[C@](C)(O)[C@@H]1C[C@@H]3O)[C@@H](C)C(=O)O (racemic) [AR101-DS1, RS-Antcin K]		evidently suppressed the MPO activities												reduced lung HP	
CC[C@H](C)C(=O)O[C@H]1C[C@@H](C)C=C2C=C[C@H](C)[C@H](CC[C@@H]3C[C@@H](O)CC(=O)O3)[C@H]21 [L, Lovastatin, reference compound]			0 (2×) and 1	1 (mild, 2 foci per 200 field) and 0 and 2 (moderate, 2-4 foci per 200 field)	2 (33-66%) (2×) and 0 (low- to medium-power evaluation of parenchymal involvement <5%)	1 (2×) and 0									
